Data reported in PMC10683482, “Offsetting Low-Affinity Carbohydrate Binding with Covalency to Engage Sugar-Specific Proteins for Tumor-Immune Proximity Induction” (ACS Central Science, 2023).
Where two headings read alike, the source gives them in different places.

What was measured:
[1] = tested on: serum polyclonal antirhamnose antibodies (human IgG); experiment: BLI affinity of rhamnose probes for polyclonal human IgG; format: binding; details: for kon: anti-rhamnose assumed 3% of total IgG; for koff: dissociation in 100 mM L-rhamnose
Description: We began by synthesizing antirhamnose affinity probes consisting of α-O/α-S and β-S rhamnose glycosides functionalized with a propargyl group for CuAAC-mediated coupling to a biotin TBD (compounds 1–3, Figure 1A and Scheme S1). This enabled rhamnose immobilization onto streptavidin surfaces and subsequent antibody binding studies. We used biolayer interferometry (BLI) to estimate and compare the apparent affinity of serum polyclonal antirhamnose antibodies for each rhamnose affinity probe (Figure 1B). […] Next, biosensors were submerged in a buffer containing free rhamnose competitor, and dissociation kinetics were measured (Figure 1B, Dissociation). The dissociation buffer contained 100 mM rhamnose competitor to inhibit avidity-based antibody rebinding, which interferes with koff measurements. […] In the context of proximity-inducing molecule development, this low monovalent sugar-binding affinity will ultimately limit ternary complex formation. […] The confirmation of low affinity binding also supports why multivalency has been historically required to efficiently engage antirhamnose antibodies for tumor-immune proximity induction and engage sugar binding receptors in general.
Figure 1 Affinity determination of endogenous and monoclonal antibody sources for L-rhamnose glycoside variants. A. Chemical structures of rhamnose affinity probes. B/C. Approximation of antirhamnose antibody binding affinity for probes 1–3 using biolayer interferometry. B. Purified human serum IgG is used to estimate the affinity of endogenous polyclonal serum antirhamnose antibodies for each affinity probe 1–3. C. Monoclonal anti-23F antibody is used to estimate the potential affinity of vaccine-induced antirhamnose antibodies for each affinity probe 1–3. […] Association was monitored for 900 (B) or 600 (C) seconds. The loaded biosensor probe was then dipped into a dissociation solution of 100 mM L-rhamnose for 600 s. Association curves were fit to a two-phase association model in GraphPad Prism using Kfast to calculate kon. Dissociation curves were similarly fit to a two-phase decay using Kfast to calculate koff. TEXT PRINTED IN THE PICTURE: (B) no label printed: Polyclonal Human IgG: Kd ≈ 7 x10^-5 M | (C) no label printed: Monoclonal Anti-23F: Kd ≈ 6 x10^-6 M DOUBTS OF THE COPYIST ABOUT THIS PICTURE: Panel B, Kd ≈ 7 x10^-5 M: printed once in the plot with no link to a single curve, so it is unclear which of (1) α–O, (2) α–S and (3) β–S it applies to / Panel C, Kd ≈ 6 x10^-6 M: printed once in the plot with no link to a single curve, so it is unclear which of (1) α–O, (2) α–S and (3) β–S it applies to […]
General Notes and Materials […]
Biolayer Interferometry (BLI) General notes and Materials
IgG from human serum was purchased from Innovative Research (IHUI GGAP1000MG). Anti -23F antibody was purchased fr om Creative Biolabs (PABX -173). Biolayer Interferometry (BLI) was conducted using a ForteBio Octet Red96, and streptavidin biosensors (Sartorius - 18-5019) or ProG biosensors (Sartorius – 18-5082). For quench, a 5% skim milk (Nestle Carnation Instant Skim Milk) solution in 1X kinetics buffer was used. The instrument was set at 25 °C, with 1000 RPM, and acquisition rate of 5 Hz.
Each well of a black well plate (Greiner Bio -One - 655086) was filled with 200 µL of appropriate solution.
Dissociation buffer was comprised of L-rhamnose (100 mM, Sigma Aldrich – R3875-10G) in 1X kinetics buffer to reduce avidity contribution to dissociation rate (koff).
SDS-PAGE General notes and Materials […]
Carboxyfluorescein was purchased from Sigma Aldrich (21877 -5G-F). IgG from human serum was purchased from Innovative Research (IHUIGGAP1000MG). Anti -23F antibody was purchased from Creative Biolabs (PABX -173). Laemellie Buffer (2x) was purchased from Sigma Aldrich (S3401 -10VL).
Pre-cast Tris-Glycine Gels (4-20%) were purchased from Fisher Scientific (XP04202BOX). Standard protein ladder was purchased from Bio Rad (1610363). […]

[2] = target: prostate-specific membrane antigen (PSMA); details: cited from earlier work
[3] = tested on: human serum antirhamnose antibody (IgG and IgM); experiment: ELISA covalent engagement of serum anti-rhamnose antibody; format: binding; details: 2 μM compound, 2% human serum, 48 h; rhamnose 100 mM added after incubation
Protocol: Figure 2 Capacity of Rha-cARMs to specifically covalently engage monoclonal anti-23F and serum anti-rhamnose. A. Chemical structures of the molecules investigated. B. Assessment of covalent vs noncovalent (cARM/ARM) engagement of human serum antirhamnose antibody via an ELISA assay. Each ARM/cARM (2 μM) was incubated with 2% human serum for 48 h and subsequently incubated directly on a streptavidin ELISA plate. Recruitment was evaluated by the addition of anti-IgG or anti-IgM HRP-conjugated secondary antibody with subsequent chromogenic substrate addition. “Comp” represents the addition of competitor rhamnose (500 mM) during 48 h of incubation. “Quench” refers to the addition of competitor rhamnose (100 mM) prior to ELISA plate binding but after 48 h of reaction incubation. C. SDS-PAGE fluorescent image of anti-23F antibody covalently labeled by fluorophore substituted Rha-cARMs (6–8). A representative protein stain associated with each gel is included on the left side of the fluorescent gel images. In all cases, 2 μM anti-23F antibody is incubated with 4 μM cARM (2 equiv) for 24 h in PBS spiked with 10% human serum. Where noted, L-rhamnose (100 mM, Rha. C) was used during incubation as a competitor for specific covalent labeling. Where noted, a free fluoresceine competitor (2.5 mM, Fluor. C) was used to distinguish fluorescein-promoted covalent labeling from rhamnose-promoted. The darker background in gels corresponding to cARM 6, 7 is attributed to the differing capacity of free cARM-fluorophore (fluoroscein vs A647) to be retained in gel, as well as an alternative imaging channel (Cy2 for fluorescein, Cy5 for A647). […] D. Kinetic SDS-PAGE fluorescence imaging experiment to determine Rha-AI-cARM/anti-23F antibody labeling kinetics using A647-cARM (8). cARM 8 (2–100 μM) was incubated with anti-23F antibody (2 μM) for up to 4 h. A representative fluorescence gel image is included corresponding to compound 8 (50 μM) incubated with either anti-23F antibody or isotype human IgG. Densitometry analysis with ImageJ was used to quantify relative band intensities. […] The error is calculated by alternative fits of initial rates data (all within the linear labeling range).
Next, we tested if cARM tool compounds can selectively label endogenous human polyclonal antirhamnose antibodies via ELISA (4 α-O rhamnose or 5 α-S rhamnose) (Figure 2B). cARMs (4, 5) and noncovalent analog ARMs (1, 2) were incubated with 2% human serum for 48 h followed by addition to a streptavidin-ELISA plate. Antibody recruitment to the plate surface was measured via the addition of HRP-conjugated anti-IgG or anti-IgM secondary antibody, followed by a chromogenic substrate. […] In the absence of a competitor, we observed robust absorbance signal in samples incubated with cARM. […]

Compound: C[C@@H]1O[C@H](SCc2cn(CCOCCNC(=O)OCCOCCOCCOCCOCCOCCOCCOCCNC(=O)CCCC[C@@H]3SC[C@@H]4NC(=O)N[C@@H]43)nn2)[C@H](O)[C@H](O)[C@H]1O [compound 3]
- kon ([1]; 26.2 µM IgG): 19771 M⁻¹ s⁻¹
- koff ([1]; 26.2 µM IgG): 0.576 s⁻¹
- Kd ([1]; 26.2 µM IgG, read-out: Kd): 29 µM
- kon ([1]; 52.5 µM IgG): 11537 M⁻¹ s⁻¹
- koff ([1]; 52.5 µM IgG): 0.481 s⁻¹
- Kd ([1]; 52.5 µM IgG, read-out: Kd): 42 µM
- kon ([1]; 105 µM IgG): 6254 M⁻¹ s⁻¹
- koff ([1]; 105 µM IgG): 0.3901 s⁻¹
- Kd ([1]; 105 µM IgG, read-out: Kd): 62 µM
- Kd ([1]; average of three IgG concentrations, read-out: Avg Kd): 44 ± 17 µM

Compound: glutamate urea [GU]
- Kd [2]: < 0.01 µM

Compound: C[C@@H]1O[C@@H](SCc2cn(CCc3cn(C(=O)OCCOCCOCCOCCOCCOCCOCCOCCNC(=O)CCCC[C@@H]4SC[C@@H]5NC(=O)N[C@@H]54)cn3)nn2)[C@H](O)[C@H](O)[C@H]1O [compound 5]
- antibody binding signal, quench control [3]: significant antibody binding signal
